Reference: PubChem BioAssay AID1549 (Sanford-Burnham Center for Chemical Genomics, 2009)
Active and inactive are the calls of the source. No rule for the calls is given here.

Molecular target: Influenza A virus M2 proton channel (A/TW/4845/1999 H1N1)
Experiment: M2 proton channel binding, NMR based, influenza A virus H1N1 strain (AID 1549)
Details: NMR binding screen, M2 protein

Row | Structure (SMILES) | Kd
1 | COC[C@]12CN(C=O)C3[C@@H]4[C@H](OC)C1[C@]3(C1CC3(O)C(OC)C(O)C4(OC(C)=O)C1C3OC(=O)c1ccccc1)[C@@H](OC)C[C@H]2O (stereo not given in full) | > 4 mM (inactive)
2 | O=C(O)C1CSC(c2ccc(Cl)cc2)N1 (stereo not given) | > 4 mM (inactive)
3 | C[C@@H]1CCC2[C@](C)(CO)[C@@H](O)CC[C@]2(C)[C@@]12CC[C@@](CO)(CCO)O2 (stereo not given in full) | > 4 mM (inactive)
4 | CC1(C)C(=O)C=C[C@@]2(C)C1C[C@@H](O)[C@]1(C)C2CC[C@@]2(C)[C@H](c3ccoc3)OC(=O)[C@H]3O[C@]321 (stereo not given in full) | > 4 mM (inactive)
5 | COc1cccc(Oc2ccc(N)cc2)c1 | > 4 mM (inactive)
6 | CCOc1ccc2ccccc2c1C(=O)N1CCOCC1 | > 4 mM (inactive)
7 | Cc1cc(C)nc(/N=C(/N)N2CCC(C(N)=O)CC2)n1 | > 4 mM (inactive)
8 | O=C1CSC(c2ccccc2)N1 (stereo not given) | > 4 mM (inactive)
9 | COC(=O)CC1=Nc2ccccc2NC(=O)C1 | > 4 mM (inactive)
10 | NC(=O)c1cc(N)cc(C(N)=O)c1 | > 4 mM (inactive)
11 | Cc1noc(C)c1CSc1nc2ccccc2[nH]1 | > 4 mM (inactive)
12 | O=[N+]([O-])c1c[n+]([O-])n(-c2ccccc2)n1 | > 4 mM (inactive)
13 | Cc1cc(NC(=O)CSc2nncn2C)no1 | > 4 mM (inactive)
14 | NCCc1ccc(S(N)(=O)=O)cc1 | > 4 mM (inactive)
15 | COc1c2occc2c(OC)c2c(=O)cc(C)oc12 | > 4 mM (inactive)
16 | O=C(O)CCCN1CNC(=S)NC1 | > 4 mM (inactive)
17 | Cc1cc(NC(=O)c2ccccc2C(=O)O)no1 | > 4 mM (inactive)
18 | OCC1=Cc2ccccc2OC1 | > 4 mM (inactive)
19 | COc1cc([C@H]2Oc3cc([C@H]4Oc5cc(O)cc(O)c5C(=O)[C@@H]4O)ccc3O[C@@H]2CO)ccc1O | > 4 mM (inactive)
20 | CS(=O)(=O)N1CCN(C(=O)c2ccccc2F)CC1 | > 4 mM (inactive)
21 | Cc1cc(O)c2c(c1)C(=O)c1cccc(O)c1C2=O | > 4 mM (inactive)
22 | CCOC(=O)Nc1ccc2c(C)cc(=O)oc2c1 | > 4 mM (inactive)
23 | COc1cc2c(c(OC)c1OC)-c1ccc(O)c(=O)cc1[C@@H](NC(C)=O)CC2 | > 4 mM (inactive)

Row | Structure (SMILES) | Kd
24 | CNc1nc(N)c(C(=O)C(C)(C)C)s1 | > 4 mM (inactive)
25 | O=C1CSC(=S)N1N1C(=O)C2C3C=CC(C3)C2C1=O (stereo not given) | > 4 mM (inactive)
26 | COc1cccc(O)c1O | > 4 mM (inactive)
27 | O=C(c1ccccc1)N1CCN(c2ccccc2F)CC1 | > 4 mM (inactive)
28 | Cc1nn2c(=O)c(NC(=O)c3ccccc3)cnc2s1 | > 4 mM (inactive)
29 | Nc1nonc1-c1nc2ccccc2[nH]1 | > 4 mM (inactive)
30 | COC(=O)c1c[nH]c2ccccc12 | > 4 mM (inactive)
31 | CSCCNC(C)=O | > 4 mM (inactive)
32 | O=c1[nH]c(N2CCOCC2)nc2ccccc12 | > 4 mM (inactive)
33 | NS(=O)(=O)c1ccc(N=Cc2ccc[nH]2)cc1 | > 4 mM (inactive)
34 | CN(C)C(=O)Nc1ccc2c(c1)nnn2C | > 4 mM (inactive)
35 | NC(=O)CSc1ccccn1 | > 4 mM (inactive)
36 | Cc1nc2ccccc2c(=O)n1CCCn1ccnc1 | > 4 mM (inactive)
37 | COC(=O)C(O)c1ccccc1 (stereo not given) | > 4 mM (inactive)
38 | CNC(=O)c1ccc([N+](=O)[O-])cc1Cl | > 4 mM (inactive)
39 | Cc1nc2nc(-c3ccco3)nn2c(C)c1Cl | > 4 mM (inactive)
40 | Cn1c(=O)c2ccccc2n(Cc2ccccc2F)c1=O | > 4 mM (inactive)
41 | Oc1cccc2[nH]ccc12 | > 4 mM (inactive)
42 | CC(C)=CCc1c(O)cc2occ(-c3ccc4c(c3)OCO4)c(=O)c2c1O | > 4 mM (inactive)
43 | Nc1nc2ccc(S(N)(=O)=O)cc2s1 | > 4 mM (inactive)
44 | Cc1cc(C)nc(N2CC(=O)N(C)C2=N)n1 | > 4 mM (inactive)
45 | COc1c(-c2ccccc2)oc2c(OC)cccc2c1=O | > 4 mM (inactive)
46 | CS(=O)(=O)Cc1ccccc1 | > 4 mM (inactive)

Row | Structure (SMILES) | Kd
47 | O=c1cc(O)n(-c2ccc(F)cc2)c(=S)[nH]1 | > 4 mM (inactive)
48 | CNC(=S)NCCN1CCOCC1 | > 4 mM (inactive)
49 | Nc1c(F)c(F)nc(F)c1F | > 4 mM (inactive)
50 | CN(C)C(=O)CCNS(=O)(=O)c1ccccc1 | > 4 mM (inactive)
51 | COc1ccc2c(c1)[n+](=O)c(C(C)=O)c(C)n2[O-] | > 4 mM (inactive)
52 | COC(=O)c1ccc(Cl)c(NC(C)=O)c1 | > 4 mM (inactive)
53 | O=S1(=O)CCC(NC(=S)Nc2ccccn2)C1 (stereo not given) | > 4 mM (inactive)
54 | CC(=O)Nc1ccncc1NC(C)=O | > 4 mM (inactive)
55 | CC(C)NS(=O)(=O)c1ccc(N)cc1 | > 4 mM (inactive)
56 | O=S(=O)(Cc1ccc(Cl)cc1)N1CCCC1 | > 4 mM (inactive)
57 | c1cc2c(cc1[C@H]1OC[C@H]3[C@@H]1CO[C@H]3c1ccc3c(c1)OCO3)OCO2 | > 4 mM (inactive)
58 | CCNC(=O)CC[C@H](N)C(=O)O | > 4 mM (inactive)
59 | O=C1NC(=Nc2ccccc2Cl)SC1(CO)CO | > 4 mM (inactive)
60 | CN1CCC(N2CCCC(C(N)=O)C2)CC1 (stereo not given) | > 4 mM (inactive)
61 | CCOC(=O)c1cnc2n(c1=O)CCS2 | > 4 mM (inactive)
62 | Nc1ccc2c(c1)S(=O)(=O)C=C2 | > 4 mM (inactive)
63 | CC1(C)CC2(CCO1)NCCN1C(=O)CSC12 (stereo not given) | > 4 mM (inactive)
64 | CC(C)=CCc1c2c(c3occ(-c4ccc(O)cc4)c(=O)c3c1O)C=CC(C)(C)O2 | > 4 mM (inactive)
65 | O=P(c1ccccc1)(c1ccccc1)C1CCOCC1 | > 4 mM (inactive)
66 | C=CCCCCCCCCCCCC(O)CC(O)COC(C)=O (stereo not given) (tested in a mixture with another compound) | > 4 mM (inactive)
67 | O=C(NC1CSCC1O)c1ccccc1 (stereo not given) | > 4 mM (inactive)
68 | Nc1nc(-c2ccccc2)cc(=O)[nH]1 | > 4 mM (inactive)
69 | CO[C@H]1[C@@H](O)[C@@H](C)O[C@H](O[C@H]2CCC3(C)C4CCC5(C)[C@@H](C6=CC(=O)OC6)CC[C@]5(O)[C@@H]4CC[C@]3(O)C2)[C@@H]1O (stereo not given in full) | > 4 mM (inactive)

Row | Structure (SMILES) | Kd
70 | COc1cc(C(=S)N2CCCC2)cc(Cl)c1O | > 4 mM (inactive)
71 | CC(=O)c1ccc(NC(=S)N2CCC(O)CC2)cc1 | > 4 mM (inactive)
72 | CC(C)(C#N)O[C@@H]1O[C@H](CO)[C@@H](O)[C@H](O)[C@H]1O | > 4 mM (inactive)
73 | CC(=O)c1cnc2nc(C(F)(F)F)nn2c1C | > 4 mM (inactive)
74 | COC(=O)/C(C)=C\CC12OC(C)(C)C3CC(C=C4C(=O)c5c(OC)c6c(c(CC=C(C)C)c5OC431)OC(C)(CCC=C(C)C)C=C6)C2=O (stereo not given) | > 4 mM (inactive)
75 | Cc1nc(SCC#N)c2c(C)c(C)sc2n1 | > 4 mM (inactive)
76 | COc1ccc(C)cc1S(N)(=O)=O | > 4 mM (inactive)
77 | O=C(O)CSc1nnc(-c2cccs2)o1 | > 4 mM (inactive)
78 | Cc1c(-c2ccc(F)cc2)[n+](=O)c2c(n1[O-])CCC2 | > 4 mM (inactive)
79 | COC1=C(OC)C(=O)C(C/C=C(\C)CC/C=C(\C)CC/C=C(\C)CC/C=C(/C)CC/C=C(\C)CC/C=C(\C)CC/C=C(\C)CC/C=C(\C)CC/C=C(\C)CCC=C(C)C)=C(C)C1=O | > 4 mM (inactive)
80 | Cn1c(CNc2ccccc2)cc(=O)n(C)c1=O | > 4 mM (inactive)
81 | Oc1ccc(-c2n[nH]c(=S)n2Cc2ccco2)cc1 | > 4 mM (inactive)
82 | CC12CCCC(O)(C1)C1CC(C)(C)C1CC2 (stereo not given) | > 4 mM (inactive)
83 | Cc1ccccc1-n1c(N)cc(=O)[nH]c1=S | > 4 mM (inactive)
84 | Cc1nn2c(=O)nc3sc4c(c3c2[nH]c1=O)CCCC4 | > 4 mM (inactive)
85 | OCc1ccccc1N1CCOCC1 | > 4 mM (inactive)
86 | Cc1c(C(=O)Nc2ccccn2)oc2ccccc12 | > 4 mM (inactive)
87 | CC1=NCCc2c1[nH]c1cc(O)ccc21 | > 4 mM (inactive)
88 | O=C1C2C3CCC(O3)C2C(=O)N1c1ccccc1 (stereo not given) | > 4 mM (inactive)
89 | Nc1ncnc2nc[nH]c12 | > 4 mM (inactive)
90 | O=c1ccc2nc3ccccc3c(=O)n2[nH]1 | > 4 mM (inactive)
91 | COc1cc(-c2coc3cc(OCc4ccccc4)c(OC)c(O)c3c2=O)cc(O)c1OC | > 4 mM (inactive)
92 | COc1ccc2c(c1)OC/C(=C\c1ccc(OC)c(O)c1)C2=O | > 4 mM (inactive)

Row | Structure (SMILES) | Kd
93 | COc1cc(OC)c2ccc(=O)oc2c1 | > 4 mM (inactive)
94 | Cn1c(=O)n(C)c2cc(C(N)=O)ccc21 | > 4 mM (inactive)
95 | CCOC(=O)CC1Sc2ccccc2NC1=S (stereo not given) | > 4 mM (inactive)
96 | Nc1ccc2c(c1)N1CCN=C1S2 | > 4 mM (inactive)
97 | Cc1[nH]c2ccccc2c1C=Nn1cncn1 | > 4 mM (inactive)
98 | Nc1nnc(C(F)(F)F)s1 | > 4 mM (inactive)
99 | O=c1[nH]c2ccc(S(=O)(=O)NC3CC3)cc2[nH]1 | > 4 mM (inactive)
100 | CC1(C)C=CC(=O)[C@@]2(C)C1CC(=O)[C@]1(C)C2CC[C@@]2(C)[C@H](c3ccoc3)OC(=O)C3OC321 (stereo not given in full) | > 4 mM (inactive)
101 | CSc1nnc2ccc(-c3cccnc3)nn12 | > 4 mM (inactive)
102 | CNCc1ccco1 | > 4 mM (inactive)
103 | O=C(O)c1sccc1-n1cccc1 | > 4 mM (inactive)
104 | c1ccc2[nH]c(SCc3cscn3)nc2c1 | > 4 mM (inactive)
105 | COC(=O)c1cc2ccccc2cn1 | > 4 mM (inactive)
106 | O=C1CCNc2ccccc2N1 | > 4 mM (inactive)
107 | CC1CN(C(=O)c2ccncc2)CC(C)O1 (stereo not given) | > 4 mM (inactive)
108 | Cc1nn(CC(=O)Nc2ccccc2)c(=O)c2ccccc12 | > 4 mM (inactive)
109 | Nc1ncnc(NCCOCCO)c1[N+](=O)[O-] | > 4 mM (inactive)
110 | c1ccn(Cc2ccncc2)c1 | > 4 mM (inactive)
111 | Oc1ccccc1-c1nnco1 | > 4 mM (inactive)
112 | O=C(O)[C@H](O)[C@@](O)(Cc1ccc(O)cc1)C(=O)O | > 4 mM (inactive)
113 | CC1=C(/C=C/C(C)=C/C=C/C(C)=C/C=C/C=C(C)/C=C/C=C(C)/C=C/C(=O)[C@]2(C)C[C@@H](O)CC2(C)C)C(C)(C)C[C@H](O)C1 | > 4 mM (inactive)
114 | S=c1oc(-c2ccncc2)nn1CCc1ccncc1 | > 4 mM (inactive)
115 | Cc1cc(F)c(F)c(C(=O)NC2CC2)c1Cl | > 4 mM (inactive)
